What was measured:
[1] = Permeability of the compound at pH 5.5 measured for 4 hrs by UV plate reader based PAMPA assay; format: ADME; conditions: read-out: permeability
[2] = Permeability of the compound at pH 7.4 measured for 4 hrs by UV plate reader based PAMPA assay; format: ADME; conditions: read-out: permeability
[3] = Oral bioavailability in C57BL6 mouse at 10 mg/kg measured upto 24 hrs by LC-MS/MS analysis; format: ADME, organism-based; conditions: in vivo
[4] = Clearance in C57BL6 mouse at 2 mg/kg, iv measured upto 24 hrs by LC-MS/MS analysis; format: ADME, organism-based; conditions: in vivo
[5] = Volume of distribution at steady state in C57BL6 mouse at 2 mg/kg, iv measured upto 24 hrs by LC-MS/MS analysis; format: ADME, organism-based; conditions: in vivo, read-out: Vdss
[6] = Cmax in C57BL6 mouse at 10 mg/kg, po measured upto 24 hrs by LC-MS/MS analysis; format: ADME, organism-based; set-up: time < 24 hrs, dose 10 mg/kg, route po; conditions: in vivo
[7] = AUC (0 to 24 hrs) in C57BL6 mouse at 10 mg/kg, po measured upto 24 hrs by LC-MS/MS analysis; format: ADME, organism-based; set-up: dose 10 mg/kg, time < 24 hrs, route po; conditions: in vivo
[8] = Metabolic stability of the compound in rat liver microsomes assessed as CYP450-mediated metabolism by measuring parent compound remaining at 0.5 uM measured after 10 mins in presence of NADPH by LC-MS/MS analysis; format: ADME, Microsome; conditions: read-out: Stability
[9] = Metabolic stability of the compound in mouse liver microsomes assessed as CYP450-mediated metabolism by measuring parent compound remaining at 0.5 uM measured after 10 mins in presence of NADPH by LC-MS/MS analysis; format: ADME, Microsome; conditions: read-out: Stability

Row | SMILES | Papp at 4 h [1] | Papp at 4 h [2] | other results
1 | COc1ccc(Cl)cc1-n1nc(C)nc1[C@@H]1O[C@H](CO)[C@H](O)[C@H](n2cc(-c3cc(F)c(F)c(F)c3)nn2)[C@H]1O | 15.7 ×10⁻⁶ cm/s | 14 ×10⁻⁶ cm/s | 
2 | Cc1nc([C@@H]2O[C@H](CO)[C@H](O)[C@H](n3cc(-c4cc(F)c(F)c(F)c4)nn3)[C@H]2O)n(-c2cccc(Cl)c2Cl)n1 | 42.3 ×10⁻⁶ cm/s | 45.2 ×10⁻⁶ cm/s | 
3 | Cc1nc([C@@H]2O[C@H](CO)[C@H](O)[C@H](n3cc(-c4cc(F)c(F)c(F)c4)nn3)[C@H]2O)n(-c2cc(Cl)ccc2C(F)(F)F)n1 | 51.1 ×10⁻⁶ cm/s | 36.9 ×10⁻⁶ cm/s | 
4 | Cc1nc([C@@H]2O[C@H](CO)[C@H](O)[C@H](n3cc(-c4ccc(Br)c(F)c4F)nn3)[C@H]2O)n(-c2cc(Cl)ccc2C(F)(F)F)n1 |  |  | bioavailability [3]: 40%; clearance [4]: 2.7 mL/min/kg; Vd [5]: 2.4 L/kg; Cmax [6]: 5 µM; AUC(0-t) at 24 h [7]: 40 µM·h
5 | OC[C@H]1O[C@@H](c2nncn2-c2cccc(Cl)c2)[C@H](O)[C@@H](n2cc(-c3cc(F)c(F)c(F)c3)nn2)[C@H]1O |  | 0.6 ×10⁻⁶ cm/s | 
6 | Cc1nc([C@@H]2O[C@H](CO)[C@H](O)[C@H](n3cc(-c4cc(F)c(F)c(F)c4)nn3)[C@H]2O)n(-c2cc(Cl)ccc2C)n1 | 15 ×10⁻⁶ cm/s | 18.1 ×10⁻⁶ cm/s | 
7 | OC[C@H]1O[C@@H](c2ncnn2-c2cccc(Cl)c2)[C@H](O)[C@@H](n2cc(-c3cc(F)c(F)c(F)c3)nn2)[C@H]1O |  | 20.3 ×10⁻⁶ cm/s | 
8 | OC[C@H]1O[C@@H](n2nncc2-c2ccc(Cl)c(Cl)c2)[C@H](O)[C@@H](n2cc(-c3cc(F)c(F)c(F)c3)nn2)[C@H]1O |  | 7 ×10⁻⁶ cm/s | 
9 | Cc1nc([C@@H]2O[C@H](CO)[C@H](O)[C@H](n3cc(-c4ccc(Cl)c(F)c4F)nn3)[C@H]2O)n(-c2cc(Cl)ccc2C(F)(F)F)n1 |  |  | Cmax [6]: 3.6 µM; AUC(0-t) at 24 h [7]: 37 µM·h
10 | Cc1nc([C@@H]2O[C@H](CO)[C@H](O)[C@H](n3cc(-c4cc(F)c(Cl)c(F)c4)nn3)[C@H]2O)n(-c2cc(Cl)ccc2C(F)(F)F)n1 |  |  | bioavailability [3]: 100%; clearance [4]: 7 mL/min/kg; remaining at 10 min, 0.5 µM [8]: 91%; remaining at 10 min, 0.5 µM [9]: 85%; Vd [5]: 1.7 L/kg; Cmax [6]: 5 µM; AUC(0-t) at 24 h [7]: 40 µM·h
11 | OC[C@H]1O[C@@H](n2nncc2-c2cccc(Cl)c2)[C@H](O)[C@@H](n2cc(-c3cc(F)c(F)c(F)c3)nn2)[C@H]1O | 3.1 ×10⁻⁶ cm/s | 3.3 ×10⁻⁶ cm/s | 

Now from value to compound, other results behind:

Row | Papp at 4 h [1] | Papp at 4 h [2] | SMILES | other results
12 | 24.7 ×10⁻⁶ cm/s | 30.4 ×10⁻⁶ cm/s | Cc1nc([C@@H]2O[C@H](CO)[C@H](O)[C@H](n3cc(-c4cc(F)c(F)c(F)c4)nn3)[C@H]2O)n(-c2cc(Cl)ccc2Cl)n1 | 
13 | 12.7 ×10⁻⁶ cm/s | 12.5 ×10⁻⁶ cm/s | Cc1nc([C@@H]2O[C@H](CO)[C@H](O)[C@H](n3cc(-c4cc(F)c(F)c(F)c4)nn3)[C@H]2O)n(-c2cc(Cl)ccc2F)n1 | 
14 | 36.3 ×10⁻⁶ cm/s | 34.5 ×10⁻⁶ cm/s | Cc1nc([C@@H]2O[C@H](CO)[C@H](O)[C@H](n3cc(-c4cc(F)c(F)c(F)c4)nn3)[C@H]2O)n(-c2cccc(Cl)c2)n1 | 
15 | 44.4 ×10⁻⁶ cm/s | 45.6 ×10⁻⁶ cm/s | Cc1nc([C@@H]2O[C@H](CO)[C@H](O)[C@H](n3cc(-c4cc(F)c(F)c(F)c4)nn3)[C@H]2O)n(-c2ccc(Cl)c(Cl)c2)n1 | 
16 | 14.5 ×10⁻⁶ cm/s | 14.8 ×10⁻⁶ cm/s | Cc1nc([C@@H]2O[C@H](CO)[C@H](O)[C@H](n3cc(-c4cc(F)c(F)c(F)c4)nn3)[C@H]2O)n(-c2cc(Cl)ccc2Br)n1 | 
17 | 10.8 ×10⁻⁶ cm/s | 12.5 ×10⁻⁶ cm/s | Cc1nc([C@@H]2O[C@H](CO)[C@H](O)[C@H](n3cc(-c4cc(F)c(F)c(F)c4)nn3)[C@H]2O)n(-c2cc(Cl)cc(Cl)c2)n1 | 

— ChEMBL document CHEMBL5120969, “Identification of Monosaccharide Derivatives as Potent, Selective, and Orally Bioavailable Inhibitors of Human and Mouse Galectin-3” (J Med Chem, 2022)
